Laboratory results as given in article PMC7785802, “Therapeutic Efficacy of a Trichinella Spiralis Paramyosin-Derived Peptide Modified With a Membrane-Targeting Signal in Mice With Antigen-Induced Arthritis” (Frontiers in Microbiology, 2020).
Entries after “also recorded” stand apart in the source; their conditions may differ.

Columns and labels:
[1] = test system: recombinant mouse C9; assay: Microscale thermophoresis (MST) binding to recombinant mouse C9; details: NT-647-labeled mouse C9 1.5 μM, peptides 1.68 to 0 mM, distilled water with 0.05% Tween 20, three independent measurements
Description: To assess the binding affinity of the peptides to human or mouse complement C9, a fluorescence-based biophysical technique known as MST (NanoTemper Technologies GmbH, Germany) was used. Briefly, human or mouse C9 was fluorescently labeled using a Monolith NT™ Protein Labeling Kit NT-647 (NanoTemper Technologies GmbH, Germany) based on the manufacturer's protocol. Next, the peptides were gradiently diluted in distilled water from 1.68 to 0 mM. The labeled human or mouse C9 (1.5 μM) was then incubated with various peptide concentrations for 10 min at room temperature before being loaded into K002 silica capillaries. Measurements were performed using a NanoTemper Monolith NT.115 instrument in distilled water containing 0.05% Tween 20. The data were analyzed using NanoTemper Analysis software (NanoTemper Technologies GmbH, Germany).
To evaluate whether the modified peptide can cross the species barrier to inhibit murine MAC assembly in addition to human MAC assembly and to provide a preliminary experimental basis for the in vivo mouse experiments, MST assays were used again to assess the binding ability of the peptides to recombinant mouse C9. […] To evaluate whether this binding can inhibit NMS-induced erythrocyte lysis (involving the alternative complement pathway), hemolytic assays were performed.
(A) Microscale thermophoresis assay (NanoTemper) in which biomolecular interactions are quantitated by examining the motion of the molecules along a microscopic temperature gradient induced by an infrared laser. Changes in the molecular hydration shell, charge, or size are measured using a fluorescent probe (NT-647) bound covalently to the mouse C9. Binding of control, modified and original peptides to mouse C9 were studied. […] Data points indicate the differences in normalized fluorescence (%) generated by peptides binding to mouse C9, and curves indicate the calculated fits. Error bars represent the standard error of three independent measurements. […] All experiments were performed three times and data are presented as mean ± SD. *p < 0.05, **p < 0.01.

[2] = test system: complement in normal mouse serum (NMS); rabbit erythrocytes; assay: NMS-induced complement-mediated hemolysis of rabbit erythrocytes (alternative pathway); type: cell-based; details: for inhibition of NMS-induced erythrocyte lysis: NMS 1:12.5, peptide 1.31, 2.62, 5.24 μmol, Mg-EGTA, 37°C 40 min, then rabbit erythrocytes 1 × 10^8, 30 min 37°C, absorbance 412 nm; for inhibition of NMS-induced erythrocyte lysis / inhibition of NMS-induced hemolysis compared to control peptide: three experiments; for NMS-induced erythrocyte lysis at 5.24 μmol: peptide 5.24 μmol, NMS 1:12.5; for inhibition of NMS-induced hemolysis compared to control peptide: peptide 2.62 and 5.24 μmol, *p < 0.05, **p < 0.01
Description: (§1) Normal human serum (NHS) was collected from six healthy volunteers, and the donation procedure was approved by the Institutional Review Board (IRB) of Capital Medical University (approval number: 2016SY01). After venous blood was collected, it was clotted in serum separator tubes for 4 h at room temperature and then centrifuged at 1,000 g for 30 min to obtain the serum. The serum was divided into aliquots and stored at −80°C. To obtain normal mouse serum (NMS), blood was collected in the […] of mice under ether anesthesia and the serum was separated and stored as described above.
(§2) When rabbit erythrocytes are placed in xenogeneic serum (such as NHS or NMS), the alternative pathway of the complement system is activated, causing lysis of the rabbit erythrocytes. To evaluate the effects of the peptides on the complement activation-mediated erythrocyte lysis (involving the alternative complement pathway), NHS or NMS (1:12.5) was incubated with various concentrations of peptides (1.31, 2.62, and 5.24 μmol) in Mg-EGTA solution (5 mM MgCl2, 10 mM EGTA) at 37°C for 40 min before adding the mixture to freshly washed erythrocytes (1 × 10^8) in gelatin veronal-buffered saline (pH 7.4, containing 0.1% gelatin) for 30 min at 37°C. Lysis was stopped with cold Hanks' Balanced Salt Solution (HBSS^++) containing 10 mM ethylenediaminetetraacetic acid (EDTA). The samples were then centrifuged at 1,000 g for 10 min to obtain the supernatant, and the amount of released hemoglobin in the supernatant was determined by measuring the absorbance at 412 nm. The hemolytic activity relative to the water-induced lysis among the same number of erythrocytes was calculated.
Figure 2 Modified peptide bound to mouse complement C9 and inhibited normal mouse serum (NMS)-induced hemolysis of rabbit erythrocytes. (A) Microscale thermophoresis assay (NanoTemper) in which biomolecular interactions are quantitated by examining the motion of the molecules along a microscopic temperature gradient induced by an infrared laser. Changes in the molecular hydration shell, charge, or size are measured using a fluorescent probe (NT-647) bound covalently to the mouse C9. Binding of control, modified and original peptides to mouse C9 were studied. […] Data points indicate the differences in normalized fluorescence (%) generated by peptides binding to mouse C9, and curves indicate the calculated fits. Error bars represent the standard error of three independent measurements. (B) NMS-induced complement-mediated hemolysis was inhibited by the modified and original peptides (2.62 and 5.24 μmol) compared to the control peptide. All experiments were performed three times and data are presented as mean ± SD. *p < 0.05, **p < 0.01.

[3] = test system: complement in normal human serum (NHS); rabbit erythrocytes; assay: NHS-induced complement-mediated hemolysis of rabbit erythrocytes (alternative pathway); type: cell-based; details: for inhibition of NHS-induced erythrocyte lysis, concentration dependence: NHS 1:12.5, peptide 1.31, 2.62, 5.24 μmol, Mg-EGTA, 37°C 40 min, then rabbit erythrocytes 1 × 10^8, 30 min 37°C, absorbance 412 nm; for inhibition of NHS-induced erythrocyte lysis, concentration dependence / inhibition of NHS-induced hemolysis compared to control peptide: three experiments; for inhibition of NHS-induced erythrocyte lysis at 5.24 μmol: peptide 5.24 μmol, NHS 1:12.5; for inhibition of NHS-induced hemolysis compared to control peptide: peptide 2.62 and 5.24 μmol, *p < 0.05, **p < 0.01
Description: as §1, §2
Figure 1 Modified peptide bound to human complement C9 and inhibited C9 polymerization-induced bio-function. (A) Microscale thermophoresis assay (NanoTemper) in which biomolecular interactions were quantitated by examining the motion of the molecules along a microscopic temperature gradient induced by an infrared laser. Changes in the molecular hydration shell, charge, or size are measured using a fluorescent probe (NT-647) bound covalently to the human C9. Binding of control, modified and original peptides to human C9 were studied. Data points indicate the differences in normalized fluorescence (%) generated by peptides binding to […], and curves indicate the calculated fits. […] Error bars represent the standard error of three independent measurements. […] Lane M: standard protein markers; lane 1: blank control (C9 without Zn^2+); lane 2: positive control (C9 with Zn^2+); lane 3: 5.24 μmol original peptide; lanes 4–6, 1.31, 2.62, and 5.24 μmol modified peptide, respectively; lane 7, 5.24 μmol control peptide. (C) Normal human serum (NHS)-induced complement-mediated hemolysis was inhibited by the modified and original peptides (2.62 and 5.24 μmol) compared to the control peptide. All experiments were performed three times and data are presented as mean ± SD. *p < 0.05, **p < 0.01.

| Substance | binding to recombinant mouse C9 [1] | inhibition of NMS-induced erythrocyte lysis [2] | inhibition of NHS-induced erythrocyte lysis, concentration dependence [3] | NMS-induced erythrocyte lysis at 5.24 μmol [2] | inhibition of NMS-induced hemolysis compared to control peptide [2] | inhibition of NHS-induced erythrocyte lysis at 5.24 μmol [3] | inhibition of NHS-induced hemolysis compared to control peptide [3] |
| --- | --- | --- | --- | --- | --- | --- | --- |
| GKMSVMSVYKSVLS [control peptide, reference compound] | could not | no inhibitory effect | no difference in the erythrocyte lysis among the three concentrations | – | – | – | – |
| Myr-GSSKSPSKKKKKKPG-ACP-VSMGKSLSSKVYVM [modified peptide, Ts-pmy-derived peptide modified with a membrane-targeting signal] | could bind to the recombinant mouse C9; also recorded: concentration-dependent binding | inhibited in a dose-dependent manner | significantly inhibited in a dose-dependent manner | reduced, to a similar level to the NHS-induced erythrocyte lysis | inhibited | greatest inhibition | inhibited |
| VSMGKSLSSKVYVM [original peptide, tetradecapeptide derived from Trichinella spiralis paramyosin (Ts-pmy)] | could bind to the recombinant mouse C9; also recorded: concentration-dependent binding | inhibited in a dose-dependent manner | significantly inhibited in a dose-dependent manner | reduced, to a similar level to the NHS-induced erythrocyte lysis | inhibited | greatest inhibition | inhibited |
